pIC50: −log10 of the molar value.
Biological target: T1, Recombinant HCV polymerase (Hepatitis C virus genotype 1b, UniProt P26663)
T1 construct: Recombinant HCV polymerase was tested for its ability to perform primer/template-directed transcription
Assay: biochemical
Settings: inhibition of polymerase-directed transcription; 30 min at 30° C; 30 nM enzyme; cpm data in triplicate
Procedure: The compounds described herein were tested for activity with HCV polymerase. Recombinant HCV polymerase was tested for its ability to perform primer/template-directed transcription in assays that contained 30 mM tris-HCl pH 7.2, 10 mM MgCl2, 20 mM NaCl, 1 mM Dithiothreitol (DTT), 0.05% Tween-20, 1% glycerol, 5 pmoles biotin-dG12 (primer), 0.5 pmoles poly(rC)300 (template), 1 μM GTP, 0.1–0.3 uCi α-^32P-GTP, and 2.5 pmoles (0.15 μg) HCV polymerase protein in a final volume of 75 μL. Reactions were initiated by addition of enzyme and incubated 30 minutes at 30° C. Reactions were stopped by addition of 33 mM EDTA, and polynucleotide products were collected by filtration through Diethylaminoethyl (DE) Filtermat papers (Wallac). Unincorporated triphosphate was removed by washing the filters with 5% dibasic sodium phosphate. The filters were counted in a Packard Tri-Lux Microbeta scintillation counter (Packard Bioscience, Meriden, Conn.). Compounds to be tested were added at various concentrations, e.g., 1 μm to 50 μm, from stocks in 10% DMSO-water (final DMSO is 1% in reaction).
IC50 values were estimated from the primary cpm data (collected in triplicate) using the formula: cpm (I)=cpm (no inhibitor)(1−([I]/([I]+IC50))). […] A percent inhibition value is expressed for a compound where it was impractical to calculate an IC50 value with available data.

T1 sequence (P26663 2420-3010): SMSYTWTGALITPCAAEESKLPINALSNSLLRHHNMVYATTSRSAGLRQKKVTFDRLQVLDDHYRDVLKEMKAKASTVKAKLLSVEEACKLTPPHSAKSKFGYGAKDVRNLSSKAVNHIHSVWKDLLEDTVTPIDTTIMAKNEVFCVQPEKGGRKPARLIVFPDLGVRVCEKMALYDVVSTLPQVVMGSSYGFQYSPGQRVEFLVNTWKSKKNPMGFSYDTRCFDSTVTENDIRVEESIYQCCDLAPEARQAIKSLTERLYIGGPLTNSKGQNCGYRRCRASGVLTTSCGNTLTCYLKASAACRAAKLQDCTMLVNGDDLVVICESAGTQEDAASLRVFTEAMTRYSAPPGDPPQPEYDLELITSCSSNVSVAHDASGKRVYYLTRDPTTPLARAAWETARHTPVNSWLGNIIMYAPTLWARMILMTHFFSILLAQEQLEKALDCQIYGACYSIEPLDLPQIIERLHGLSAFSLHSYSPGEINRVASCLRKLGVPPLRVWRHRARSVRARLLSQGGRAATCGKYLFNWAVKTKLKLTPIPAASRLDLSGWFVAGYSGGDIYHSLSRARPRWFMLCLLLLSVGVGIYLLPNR

| SMILES | pIC50 |
| --- | --- |
| CCCOc1cnc(CC)cc1CCC1(C2CCCC2)CC(O)=C(Cc2nc3nc(C)cc(C)n3n2)C(=O)O1 (stereo not drawn) [A(42), 6-Cyclopentyl-3-[(5,7-dimethyl[1,2,4]triazolo[1,5-a]pyrimidin-2-yl)methyl]-6-[2-(2-ethyl-5propoxypyridin-4-yl)ethyl]-4-hydroxy-5,6-dihydro-2H-pyran-2-one] | 8.40 |
| CCc1cc(CCC2(C3CCCC3)CC(O)=C(Cc3nc4ncc(C)cn4n3)C(=O)O2)cc(CC)n1 (stereo not drawn) [A(36)] | 7.52 |
| CS(=O)(=O)c1ccc(CCC2(C3CCCC3)CC(=O)CC(=O)O2)cc1C(F)(F)F (stereo not drawn) [B(3)] | 5.19 |
| CCc1cc(CCC2(C3CCCC3)CC(O)=C(Cc3nc4nc(C)cc(C)n4n3)C(=O)O2)ccc1CNS(C)(=O)=O (single isomer, unassigned; enantiomer 2) [A(130), Enantiomer 2 of N-[4-(2-{2-cyclopentyl-5-[(5,7-dimethyl[1,2,4]triazolo[1,5-a]pyrimidin-2-yl)methyl]-4-hydroxy-6-oxo-3,6-dihydro-2H-pyran-2-yl}ethyl)-2-ethylbenzyl]methanesulfonamide] | 8.52 |
| Cc1cc(C)n2nc(CC3=C(O)CC(CCc4ccc([C@@H](C)NS(=O)(=O)CC(F)(F)F)cc4)(C4CCCC4)OC3=O)nc2n1 (stereo partly drawn) [A(82), N-{(1R)-1-[4(2-{2-cyclopentyl-5-[(5,7-dimethyl[1,2,4]triazolo[1,5-a]pyrimidin-2-yl)methyl]4-hydroxy-oxo-3,6dihydro-2H-pyran-2-yl}ethyl)phenyl]ethyl}-2,2,2-trifluoroethanesulfonamide] | 7.19 |
| Cc1c(CC2=C(O)CC(CCc3ccc(C(C)(C)C#N)c(F)c3)(C3CCCC3)OC2=O)cnn1C (stereo not drawn) [A(94), 2-[4-(2-{2-Cyclopentyl-5-[(1,5-dimethyl-1H-pyrazol-4-yl)methyl]-4-hydroxy-6-oxo-3,6dihydro-2H-pyran-2-yl}ethyl)-2-fluorophenyl]-2-methylpropanenitrile] | 7.57 |
| Cc1cc(C)n2nc(CC3=C(O)CC(CCc4cc(C)c(O)c(CC(F)(F)F)c4)(C4CCCC4)OC3=O)nc2n1 (stereo not drawn) [A(76), 6-Cyclopentyl-3-[(5,7-dimethyl[1,2,4]triazolo[1,5-a]pyrimidin-2-yl)methyl]-4-hydroxy-6-{2-[4-hydroxy-3-methyl-5-(2,2,2-trifluoroethyl)phenyl]ethyl}-5,6-dihydro-2H-pyran-2-one] | 8.30 |
| Cc1cc(C)n2nc(CC3=C(O)CC(CCc4ccc(O)c(CC(F)(F)F)c4)(C4CCCC4)OC3=O)nc2n1 (single isomer, unassigned) [A(74), 6-Cyclopentyl-3-[(5,7-dimethyl[1,2,4]triazolo[1,5-a]pyrimidin-2-yl)methyl]-4-hydroxy-6-{2-[4-hydroxy-3-(2,2,2-trifluoroethyl)phenyl]ethyl}-5,6-dihydro-2H-pyran-2-one] | 8.52 |
| CCn1cc(CC2=C(O)CC(CCc3ccc(C(C)(C)C#N)c(Cl)c3)(C3CCCC3)OC2=O)cn1 (stereo not drawn) [B(23), 2-[2-Chloro-4-(2-{2-cyclopentyl-5-[(1-ethyl-1H-pyrazol-4-yl)methyl]-4-hydroxy-6-oxo-3,6-dihydro-2H-pyran-2-yl}ethyl)phenyl]-2-methylpropanenitrile] | 6.85 |
| CCCS(=O)(=O)Nc1ccc(CCC2(C3CCCC3)CC(O)=C(Cc3nc4nc(C)cc(C)n4n3)C(=O)O2)cc1CC (stereo not drawn) [A(109), N-[4-(2-{2-cyclopentyl-5-[(5,7-dimethyl[1,2,4]triazolo[1,5-a]pyrimidin-2-yl)methyl]-4-hydroxy-6-oxo-3,6-dihydro-2H-pyran-2-yl}ethyl)-2-ethylphenyl]propane-1-sulfonamide] | 8.22 |
| CCc1ccc(=O)n(CCC2(C3CCCC3)CC(O)=C(Cc3nc4nc(C)cc(C)n4n3)C(=O)O2)c1 (stereo not drawn) [B(31), 1-(2-{2-Cyclopentyl-5-[(5,7-dimethyl[1,2,4]triazolo[1,5-a]pyrimidin-2-yl)methyl]-4-hydroxy-6-oxo-3,6-dihydro-2H-pyran-2-yl}ethyl)-5-ethylpyridin-2(1H)-one] | 6.74 |
| CCc1cc(CCC2(C3CCCC3)CC(O)=C(Cc3nc4nc(C)cc(C)n4n3)C(=O)O2)ccc1CN1CCOCC1 (single isomer, unassigned) [A(157), 6-Cyclopentyl-3-[(5,7-dimethyl[1,2,4]triazolo[1,5-a]pyrimidin-2-yl)methyl]-{2-[3-ethyl-4-(morpholin-4-ylmethyl)phenyl]ethyl}-4-hydroxy-5,6-dihydro-2H-pyran-2-one] | 8.00 |
| Cc1cc(C)n2nc(CC3=C(O)CC(CCc4ccnc(C(C)C)c4)(C4CCCC4)OC3=O)nc2n1 (stereo not drawn) [A(33), 6Cyclopentyl-3-[(5,7-dimethyl[1,2,4]triazolo[1,5-a]pyrimidin-2-yl)methyl]-4-hydroxy-6-[2-(2-isopropylpyridin-4-yl)ethyl]-5,6-dihydro-2H-pyran-2-one] | 8.15 |
| CCc1cc(CCC2(C3CCCC3)CC(O)=C(Cc3nc4nc(C)cc(C)n4n3)C(=O)O2)cc(C(C)C)n1 (stereo not drawn) [A(34), 6-Cyclopentyl-3-[(5,7-dimethyl[1,2,4]triazolo[1,5-a]pyrimidin-2-yl)methyl]-6-[2-(2-ethyl-6-isopropylpyridin-4-yl)ethyl]-4-hydroxy-5,6-dihydro-2H-pyran-2-one] | 7.92 |
| Cc1nn(C)c(Cl)c1CC1=C(O)CC(CCc2ccc(C(C)(C)C#N)c(F)c2)(C2CCCC2)OC1=O (stereo not drawn) [A(96), 2-[4-(2-{5-[(5-Chloro-1,3-dimethyl-1H-pyrazol-4-yl)methyl]-2-cyclopentyl-4-hydroxy-6-oxo-3,6-dihydro-2H-pyran-2-yl}ethyl)-2-fluorophenyl]-2-methylpropanenitrile] | 8.22 |
| CCc1cc(CCC2(C3CCCC3)CC(O)=C(Cc3nc4nc(C)cc(C)n4n3)C(=O)O2)ccc1CN(C)C (racemic) [A(119), 6-cyclopentyl-6-(2-{4-[(dimethylamino)methyl]-3-ethylphenyl}ethyl)-3-[(5,7-dimethyl[1,2,4]triazolo[1,5-a]pyrimidin-2-yl)methyl]-4-hydroxy-5,6-dihydro-2H-pyran-2-one] | 8.00 |
| CCc1cc(CCC2(C3CCCC3)CC(O)=C(Cc3nc4nc(C)cc(C)n4n3)C(=O)O2)ccc1C (stereo not drawn) [A(111), 6-Cyclopentyl-3[(5,7-dimethyl[1,2,4]triazolo[1,5-a]pyrimidin-2-yl)methyl]-6-[2-(3-ethyl-4-methylphenyl)ethyl]-4-hydroxy-5,6dihydro-2H-pyran-2-one] | 8.30 |
| CCc1ccnc(CCC2(C3CCCC3)CC(O)=C(Cc3nc4ncc(C)cn4n3)C(=O)O2)c1 (stereo not drawn) [A(16), 6-Cyclopentyl-6-[2-(4-ethylpyridin-2-yl)ethyl]-4-hydroxy-3-[(6-methyl[1,2,4]triazolo[1,5-a]pyrimidin-2-yl)methyl]-5,6-dihydro-2H-pyran-2-one] | 7.26 |
| CCc1cc(CCC2(C3CCCC3)CC(O)=C(Cc3nc4nc(C)cc(C)n4n3)C(=O)O2)ccc1OCCNC(=O)OC(C)(C)C (stereo not drawn) [A(70), tert-Butyl 2-[4-(2-{2-cyclopentyl-5-[(5,7-dimethyl[1,2,4]triazolo[1,5-a]pyrimidin-2-yl)methyl]-4-hydroxy-6-oxo-3,6-dihydro-2H-pyran-2-yl}ethyl)-2-ethylphenoxy]ethylcarbamate] | 7.85 |
| CCOc1cnc(CC)cc1CCC1(C2CCCC2)CC(O)=C(Cc2nc3nc(C)cc(C)n3n2)C(=O)O1 (single isomer, unassigned) [A(52), 6-cyclopentyl-3-[(5,7-dimethyl[1,2,4]triazolo[1,5-a]pyrimidin-2-yl)methyl]-6-[2-(5-ethoxy-2-ethylpyridin-4-yl)ethyl]-4-hydroxy-5,6-dihydro-2H-pyran-2-one] | 8.52 |
| Cc1cc(C)n2nc(CC3=C(O)CC(CCc4ccc(C(C)(C)C#N)c(C(F)(F)F)c4)(C4CCCC4)OC3=O)nc2n1 (racemic) [Example B(28), 2-[4-(2-{2-cyclopentyl-5-[(5,7-dimethyl[1,2,4]triazolo[1,5-a]pyrimidin-2-yl)methyl]-4-hydroxy-6-oxo-3,6-dihydro-2H-pyran-2-yl}ethyl)-2-(trifluoromethyl)phenyl]-2-methylpropanenitrile] | 8.30 |
| CCCOc1cc(O)c(CCC2(C3CCCC3)CC(O)=C(Cc3nc4nc(C)cc(C)n4n3)C(=O)O2)cc1CC (stereo not drawn) [A(49), 6-Cyclopentyl-3-[(5,7-dimethyl[1,2,4]triazolo[1,5-a]pyrimidin-2-yl)methyl]-6-[2-(5-ethyl-2-hydroxy-4-propoxyphenyl)ethyl]-4-hydroxy-5,6-dihydro-2H-pyran-2-one] | 8.15 |
| CCn1nc(CC2=C(O)CC(CCc3ccc(C(C)(C)C#N)c(F)c3)(C3CCCC3)OC2=O)nc1C (stereo not drawn) [Example B(50), 2-[4-(2-{2-Cyclopentyl-5-[(1-ethyl-5-methyl-1H-1,2,4-triazol-3-yl)methyl]-4-hydroxy-6-oxo-3,6dihydro-2H-pyran-2-yl}ethyl)-2-fluorophenyl]-2-methylpropanenitrile] | 7.37 |

Same assay, conditions: read-out: % inh @ 50 uM

| SMILES | inhibition at 50 µM |
| --- | --- |
| CCc1cc(CCC2(C3CCCC3)CC(=O)CC(=O)O2)c(OC)cc1OCCN(C)C(=O)OC(C)(C)C (stereo not drawn) [A(73), tert-Butyl 2-{4-[2-(2-cyclopentyl-4,6-dioxotetrahydro-2H-pyran-2-yl)ethyl]-2-ethyl-5-methoxyphenoxy}ethyl(methyl)carbamate] | 19% |

From US7151105B2, “Inhibitors of Hepatitis C virus RNA-dependent RNA polymerase, and compositions and treatments using the same” (Agouron Pharmaceuticals, Inc., priority 2004, dated 2006)
